Results: PMC11166204, “Mapping the global interactome of the ARF family reveals spatial organization in cellular signaling pathways” (Journal of Cell Science, 2024)
Read-outs that look alike come from different tables or passages of the source.

Columns and labels:
Assay type in all cases: binding
ARL11 = target: T1, ARL11 (Homo sapiens, UniProt Q969Q4); test: ITC; 1H-15N HSQC NMR
T1 construct: amino acids 1–196 (GST tag cleaved with thrombin)

ARL10 [1] = target: T2, ARL10 (Homo sapiens, UniProt Q8N8L6); test: co-purified nucleotide by ion-pair reversed-phase HPLC
T2 construct: GFP-tagged, purified from HEK293T cells
T2 sequence (Q8N8L6 1-244): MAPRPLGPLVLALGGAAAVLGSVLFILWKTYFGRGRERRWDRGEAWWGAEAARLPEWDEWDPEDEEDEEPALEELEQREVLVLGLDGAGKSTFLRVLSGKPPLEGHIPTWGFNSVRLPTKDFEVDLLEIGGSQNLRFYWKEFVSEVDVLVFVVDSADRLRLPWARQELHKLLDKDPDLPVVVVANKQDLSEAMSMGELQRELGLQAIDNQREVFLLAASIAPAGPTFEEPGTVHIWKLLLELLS

KRAS [2] = target: T3, KRAS (Homo sapiens, UniProt P01116, Q61L); test: as above
T3 construct: GFP-tagged, purified from HEK293T cells

ARL10 [3] = target: T2, ARL10; test: as above; remark: listed apart in the source
KRAS [4] = target: T4, KRAS (Homo sapiens, UniProt P01116); test: as above
T4 construct: GFP-tagged, purified from HEK293T cells

ARF1 = target: T5, ARF1 (Homo sapiens, UniProt P84077); test: as above
T5 construct: GFP-tagged, purified from HEK293T cells
T5 sequence (P84077 2-181): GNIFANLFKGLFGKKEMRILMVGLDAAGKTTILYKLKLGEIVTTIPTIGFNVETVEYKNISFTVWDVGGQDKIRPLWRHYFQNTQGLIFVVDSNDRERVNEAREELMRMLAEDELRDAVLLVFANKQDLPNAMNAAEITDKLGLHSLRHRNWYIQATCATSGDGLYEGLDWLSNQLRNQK

T1 sequence (Q969Q4 whole entry, the tested form may be a part): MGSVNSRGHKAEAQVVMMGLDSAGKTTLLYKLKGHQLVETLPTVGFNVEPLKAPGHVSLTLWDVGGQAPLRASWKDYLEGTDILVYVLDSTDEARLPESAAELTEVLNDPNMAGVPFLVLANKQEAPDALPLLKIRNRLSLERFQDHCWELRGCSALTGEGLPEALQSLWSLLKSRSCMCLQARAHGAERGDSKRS

Structure (SMILES): Nc1nc2c(ncn2[C@@H]2O[C@H](COP(=O)(O)OP(=O)(O)OP(O)(O)=S)[C@@H](O)[C@H]2O)c(=O)[nH]1 [GTPγS]
- Kd (ARL11): 0.00153 µM

Structure (SMILES): Nc1nc2c(ncn2[C@@H]2O[C@H](COP(=O)(O)OP(=O)(O)OP(=O)(O)O)[C@@H](O)[C@H]2O)c(=O)[nH]1 [GTP]
- % GTP (ARL10 [1]): 29 % GTP
- % GTP (KRAS [2]): 59 % GTP

Structure (SMILES): Nc1nc2c(ncn2[C@@H]2O[C@H](COP(=O)(O)OP(=O)(O)O)[C@@H](O)[C@H]2O)c(=O)[nH]1 [GDP]
- co-purified nucleotide by ion-pair reversed-phase HPLC (ARL10 [3]): WT ARL10 co-precipitated with both GDP and GTP
- co-purified nucleotide by ion-pair reversed-phase HPLC (KRAS [4]): WT KRAS remained GDP loaded, as did WT ARF1
- Kd (ARL11; read-out: Kd): 1.73 µM
- co-purified nucleotide by ion-pair reversed-phase HPLC (ARF1): WT KRAS remained GDP loaded, as did WT ARF1
